Consider 31 molecules from patent US8420823B2, “Long-chain fatty acyl elongase inhibitor comprising arylsulfonyl derivative as active ingredient” (MSD K.K., priority 2008, dated 2013).

Counter-ions that a name gives are not always drawn.

The experiment addresses T1, human LCE (Homo sapiens, UniProt Q9H5J4).
T1 sequence (Q9H5J4 1-265): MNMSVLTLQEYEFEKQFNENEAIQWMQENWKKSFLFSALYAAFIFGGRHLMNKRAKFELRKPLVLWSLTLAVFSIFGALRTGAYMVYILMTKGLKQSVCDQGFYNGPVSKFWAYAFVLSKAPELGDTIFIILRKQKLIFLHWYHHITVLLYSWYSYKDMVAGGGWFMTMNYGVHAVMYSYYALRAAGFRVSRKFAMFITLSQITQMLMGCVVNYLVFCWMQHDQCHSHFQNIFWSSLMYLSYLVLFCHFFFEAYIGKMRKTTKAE
The experiment is described as follows: LCE enzyme activity-inhibitory test. It counts as biochemical. The settings on record: [14C]-malonyl CoA / palmitoyl CoA substrate, 37° C., 90 minutes. How it is done:
Pharmacological Test Example 1 (LCE Enzyme Activity-inhibitory Test)
A test compound was dissolved in dimethyl sulfoxide (DMSO to be 10 mM), and then diluted with DMSO to prepare a 1000-fold concentrated solution of the test concentration. An improved Moon et al's method (J. Biol. Chem., Vol. 276, pp. 45358-45366, 2001) was employed for the LCE enzyme activity-inhibitor test. Concretely, the diluted compound was applied to a 96-well assay plate (Corning, 96-well assay block) in an amount of 1.0 μL/well; 50 μL of a phosphate buffer solution (100 mM potassium phosphate buffer, pH 6.5), and 25 μL of a substrate solution (100 mM potassium phosphate buffer (pH 6.5), 4.0 μM rotenone, 80 μM fatty acid-free bovine serum albumin, 160 μM palmitoyl CoA, 80 μM malonyl CoA, 3.5 μM [^14C]-malonyl CoA (1.92 GBq/mmol, by Amersham)) were added to each well; 25 μL of an enzyme solution (100 mM potassium phosphate buffer (pH 6.5), 100 μg/mL human LCE) was added thereto; the top of the plate was airtightly sealed up; and this was incubated with gently shaking and stirring at 37° C. for 90 minutes. Next, 100 μL of 5 M hydrochloric acid was added to each well, and the assay plate was stirred at room temperature for 5 minutes to stop the enzyme reaction with hydrolyzing the acyl CoA. Next, the enzyme reaction solution in each well was adsorbed by each well of a 96-well GF/C filter plate (Perkin Elmer Unifilter 96 GF/C); the individual wells were washed with water to remove the non-adsorbed malonyl CoA; and the GF/C filter plate was dried at 50° C. for 60 minutes. Next, 30 μL of a scintillator (Perkin Elmer Microscinti 0) was added to each well; then the top of the plate was sealed up; and the fixed [^14C] radioactivity was measured with a microplate scintillation counter (Perkin Elmer TopCount) to be the enzyme activity. The human LCE enzyme-inhibitory activity of the test compound was calculated, based on the radioactivity of the DMSO-added well with no test compound therein as a control.
A word on the IC50: it is the concentration needed to halve the response being measured. Low values mean higher potency, high ones lower potency. In turn, `CC(C)Oc1ccc(NC(=O)c2cccc(S(=O)(=O)N3C[C@H]4C[C@@H]3CO4)c2)cc1` [Example 1, N-(4-isopropoxyphenyl)-3-[(1R,4R)-2-oxa-5-azabicyclo[2.2.1]hept-5-ylsulfonyl]benzamide] came in with an IC50 of 2200 nM. The molecule `CC(C)Oc1ccc(NC(=O)c2cccc(S(=O)(=O)N3CC4CCC3C4)c2)cc1` (stereo not shown) [Example 2, 3-(2-Azabicyclo[2.2.1]hept-2-ylsulfonyl)-N-(4-isopropoxyphenyl)benzamide] yielded an IC50 of 36 nM. Regarding `CC(C)Oc1ccc(NC(=O)c2cccc(S(=O)(=O)N3CCc4[nH]ncc4C3)c2)cc1` [Example 3, N-(4-isopropoxyphenyl)-3-(1,4,6,7-tetrahydro-5H-pyrazolo[4,3-c]pyridin-5-ylsulfonyl)benzamide trifluoroacetate], half-maximal inhibition (IC50) was put at 7400 nM. For the molecule `CC(C)Oc1ccc(NC(=O)c2cccc(S(=O)(=O)N3CC4CC5CC(C4)CC3C5)c2)cc1` [Example 4, 3-(4-Azatricyclo[4.3.1.1^3,8]undec-4-ylsulfonyl)-N-(4-isopropoxyphenyl)benzamide], the IC50 turned out to be 5100 nM. In the case of `CC(C)Oc1ccc(NC(=O)c2cccc(S(=O)(=O)N3CCCC(c4nc5ccccc5[nH]4)C3)c2)cc1` (stereo not shown) [Example 5, 3-{[3-(1H-benzimidazol-2-yl)piperidin-1-yl]sulfonyl}-N-(4-isopropoxyphenyl)benzamide] it was 30 nM. In the case of `CC(C)Oc1ccc(NC(=O)c2cccc(S(=O)(=O)NC(C3CC3)C3CC3)c2)cc1` [Example 6, 3-{[(dicyclopropylmethyl)amino]sulfonyl}-N-(4-isopropoxyphenyl)benzamide] it was 1100 nM. For the molecule `CC(C)Oc1ccc(NC(=O)c2cccc(S(=O)(=O)N3CCCC(c4nc5ccccc5o4)C3)c2)cc1` (stereo not shown) [Example 7, 3-{[3-(1,3-benzoxazol-2-yl)piperidin-1-yl]sulfonyl}-N-(4-isopropoxyphenyl)benzamide], the IC50 was determined as 51 nM.

Molecule `CC(C)Oc1ccc(NC(=O)c2cccc(S(=O)(=O)N3C[C@@H]4C[C@H]3CN4C)c2)cc1` [Example 8, N-(4-isopropoxyphenyl)-3-{[(1S,4S)-5-methyl-2,5-diazabicyclo[2.2.1]hept-2-yl]sulfonyl}benzamide trifluoroacetate] gave an IC50 of 9600 nM. As to `CC(C)Oc1ccc(NC(=O)c2cccc(S(=O)(=O)N3CCOC(COc4ccccc4)C3)c2)cc1` (stereo not shown) [Example 9, N-(4-isopropoxyphenyl)-3-{[2-(phenoxymethyl)morpholin-4-yl]sulfonyl}benzamide], the IC50 came out at 150 nM. In the case of `CC(C)Oc1ccc(NC(=O)c2cccc(S(=O)(=O)N3C[C@@H]4C[C@H]3CO4)c2)cc1` [Example 10, N-(4-isopropoxyphenyl)-3-[(1S,4S)-2-oxa-5-azabicyclo[2.2.1]hept-5-ylsulfonyl]benzamide] it was 760 nM. On to `CC(C)Oc1ccc(NC(=O)c2cccc(S(=O)(=O)N3CCCC(c4nncn4C)C3)c2)cc1` (stereo not shown) [Example 11, N-(4-isopropoxyphenyl)-3-{[3-(4-methyl-4H-1,2,4-triazol-3-yl)piperidin-1-yl]sulfonyl}benzamide trifluoroacetate], for which the midpoint of inhibition, the IC50, lay at 1000 nM. To `CC(C)Oc1ccc(NC(=O)c2cccc(S(=O)(=O)N3CCN4CCCC4C3)c2)cc1` (stereo not shown) [Example 12, 3-(Octahydropyrrolo[1,2-a]pyrazin-2(1H)-ylsulfonyl)-N-(4-isopropoxyphenyl)benzamide trifluoroacetate] belongs 6800 nM.

In turn, `CC(C)Oc1ccc(NC(=O)c2cccc(S(=O)(=O)N3CCN4CCCCC4C3)c2)cc1` (stereo not shown) [Example 13, N-(4-Isopropoxyphenyl)-3-(octahydro-2H-pyrido[1,2-a]pyrazin-2-ylsulfonyl)benzamide trifluoroacetate] yielded an IC50 of 5200 nM.

In turn, `CC(C)Oc1ccc(NC(=O)c2cccc(S(=O)(=O)N3CCCC(CN4CCOCC4)C3)c2)cc1` (stereo not shown) [Example 14, N-(4-Isopropoxyphenyl)-3-{[3-(morpholin-4-ylmethyl)piperidin-1-yl]sulfonyl}benzamide trifluoroacetate] displayed an IC50 of 1200 nM. For the molecule `CC(C)Oc1ccc(NC(=O)c2cccc(S(=O)(=O)N3CCC(F)CC3)c2)cc1` [Example 15, 3-[(4-Fluoropiperidin-1-yl)sulfonyl]-N-(4-isopropoxyphenyl)benzamide], the midpoint of inhibition, the IC50, lay at 120 nM. Compared with the last molecule, the IC50 is about 10-fold lower.

For the molecule `CC(C)Oc1ccc(NC(=O)c2cccc(S(=O)(=O)N3CC4CCC3CC4)c2)cc1` [Example 16, 3-(2-Azabicyclo[2.2.2]oct-2-ylsulfonyl)-N-(4-isopropoxyphenyl)benzamide], inhibition was half-maximal at 110 nM (IC50). The molecule `CC(C)Oc1ccc(NC(=O)c2cccc(S(=O)(=O)N3CCC(F)(F)CC3)c2)cc1` [Example 17, 3-[(4,4-Difluoropiperidin-1-yl)sulfonyl]-N-(4-isopropoxyphenyl)benzamide] gave a half-maximal inhibitory concentration (IC50) of 340 nM.

As to `COC1CCCN(S(=O)(=O)c2cccc(C(=O)Nc3ccc(OC(C)C)cc3)c2)C1` (stereo not shown) [Example 18, N-(4-isopropoxyphenyl)-3-[(3-methoxypiperidin-1-yl)sulfonyl]benzamide], the IC50 was found to be 510 nM. To `CC(C)Oc1ccc(NC(=O)c2cccc(S(=O)(=O)N3CCCC(F)(F)C3)c2)cc1` [Example 19, 3-[(3,3-Difluoropiperidin-1-yl)sulfonyl]-N-(4-isopropoxyphenyl)benzamide] belongs 1500 nM. Take `CC(C)Oc1ccc(NC(=O)c2cccc(S(=O)(=O)N3CCCC(OCc4cccnc4)C3)c2)cc1` (stereo not shown) [Example 20, N-(4-isopropoxyphenyl)-3-{[3-(pyridin-3-ylmethoxy)piperidin-1-yl]sulfonyl}benzamide trifluoroacetate]: the IC50 came to 530 nM. In the case of `CC(C)Oc1ccc(NC(=O)c2cccc(S(=O)(=O)N3CCCC(OCc4ccccn4)C3)c2)cc1` (stereo not shown) [Example 21, N-(4-isopropoxyphenyl)-3-{[3-(pyridin-2-ylmethoxy)piperidin-1-yl]sulfonyl}benzamide trifluoroacetate] it was 200 nM; in that of `CC(C)Oc1ccc(NC(=O)c2cccc(S(=O)(=O)N3CCc4o[nH]c(=O)c4C3)c2)cc1` [Example 22, N-(4-isopropoxyphenyl)-3-[(3-oxo-2,3,6,7-tetrahydroisoxazolo[4,5-c]pyridin-5(4H)-yl)sulfonyl]benzamide], 5100 nM; in that of `CC(C)Oc1ccc(NC(=O)c2cccc(S(=O)(=O)N3CCC[C@@H]3C)c2)cc1` [Example 23, N-(4-isopropoxyphenyl)-3-{[(2S)-2-methylpyrrolidin-1-yl]sulfonyl}benzamide], 130 nM. Regarding `CC(C)Oc1ccc(NC(=O)c2cccc(S(=O)(=O)N3CCC[C@H]3C)c2)cc1` [Example 24, N-(4-isopropoxyphenyl)-3-{[(2R)-2-methylpyrrolidin-1-yl]sulfonyl}benzamide], the IC50 amounted to 670 nM.

Molecule `CC(C)Oc1ccc(NC(=O)c2cccc(S(=O)(=O)NCC(C)c3nc4ccccc4[nH]3)c2)cc1` (stereo not shown) [Example 25, 3-({[2-(1H-benzimidazol-2-yl)propyl]amino}sulfonyl)-N-(4-isopropoxyphenyl)benzamide] registered an IC50 of 280 nM. In the case of `CC(C)c1ccc(NC(=O)c2cccc(S(=O)(=O)N3[C@H](C)CC[C@H]3C)c2)cc1` [Example 26, 3-{[(2R,5R)-2,5-dimethylpyrrolidin-1-yl]sulfonyl}-N-(4-isopropylphenyl)benzamide], the IC50 was 3500 nM. To `CC(C)c1ccc(NC(=O)c2cccc(S(=O)(=O)N3CCCCCC3)c2)cc1` [Example 27, 3-(Azepan-1-ylsulfonyl)-N-(4-isopropylphenyl)benzamide] belongs 190 nM; to `CC(C)c1ccc(NC(=O)c2cccc(S(=O)(=O)N3CCCC3)c2)cc1` [Example 28, N-(4-isopropylphenyl)-3-(pyrrolidin-1-ylsulfonyl)benzamide], 170 nM; to `CC(C)c1ccc(NC(=O)c2cccc(S(=O)(=O)N3CCOCC3)c2)cc1` [Example 29, N-(4-isopropylphenyl)-3-(morpholin-4-ylsulfonyl)benzamide], 180 nM.

For `CC(C)c1ccc(NC(=O)c2cccc(S(=O)(=O)N3CCCCC3C)c2)cc1` (stereo not shown) [Example 30, N-(4-isopropylphenyl)-3-[(2-methylpiperidin-1-yl)sulfonyl]benzamide], the IC50 stood at 100 nM. To `CC(C)c1ccc(NC(=O)c2cccc(S(=O)(=O)N3[C@H](C)CCC[C@@H]3C)c2)cc1` [Example 31, 3-{[(2R,6S)-2,6-dimethylpiperidin-1-yl]sulfonyl}-N-(4-isopropylphenyl)benzamide] belongs 2800 nM.
